One may read the IC50 as the concentration needed to halve the response being measured.

In one assay the test system is HCT116 MTAP KO. Description: Cell proliferation inhibition (CellTiter Glo), HCT116 MTAP KO cells. The format is cell-based. As to conditions: Homo sapiens, HCT-116, 144 h, cultured 6 days with compound. On the procedure:
(§1) Test Example 2: Test of cell proliferation inhibition activity of the compounds
(§2) HCT116-WT (ATCC, CCL-247) and HCT116 MTAP KO (Cobioer Nanjing, CBP75002) cells were seeded into white low-transparency 96-well sterile cell culture plates at a density of 250 cells per well, respectively. The culture medium was McCoy's 5A Medium + 10% FBS. The plates were incubated overnight at 37°C with 5% CO2. The cells were treated with compounds gradiently with an initial concentration of 10000 nM, 4-fold dilution, and 8 concentration points. The last two columns were control wells with only DMSO added. The treated cells were continued to be cultured for 6 days. On the seventh day, 50 µL of CellTiter Glo® reagent was added to each well. After reacting on a shaker at room temperature for 10 minutes, the chemiluminescence signal in the plate was detected using the chemiluminescence detection method on a BIOTEK H1 multi-mode plate reader. […] Table 2: IC50 values of compounds for HCT116 MTAP KO/WT cell growth inhibition
A general note: In ATP-based viability assays light output follows the ATP content of the culture.

A further assay concerns HCT116-WT. Description: Cell proliferation inhibition (CellTiter Glo), HCT116-WT cells. The conditions noted are these: 144 h, cultured 6 days with compound. The assay is classed as cell-based. The procedure: as §1, §2
The target of the next assay is PRMT5-MTA (Homo sapiens, UniProt O14744). Description: biochemical. The conditions noted are these: IC50 (nM), PRMT5+MTA enzyme activity inhibition; PRMT5/MET50 protein 1 nM, 5'-deoxy-5'-adenosine 1 µM, SAM 2.5 µM, Histone H4 substrate 5 nM.
PRMT5-MTA, sequence (O14744 whole entry): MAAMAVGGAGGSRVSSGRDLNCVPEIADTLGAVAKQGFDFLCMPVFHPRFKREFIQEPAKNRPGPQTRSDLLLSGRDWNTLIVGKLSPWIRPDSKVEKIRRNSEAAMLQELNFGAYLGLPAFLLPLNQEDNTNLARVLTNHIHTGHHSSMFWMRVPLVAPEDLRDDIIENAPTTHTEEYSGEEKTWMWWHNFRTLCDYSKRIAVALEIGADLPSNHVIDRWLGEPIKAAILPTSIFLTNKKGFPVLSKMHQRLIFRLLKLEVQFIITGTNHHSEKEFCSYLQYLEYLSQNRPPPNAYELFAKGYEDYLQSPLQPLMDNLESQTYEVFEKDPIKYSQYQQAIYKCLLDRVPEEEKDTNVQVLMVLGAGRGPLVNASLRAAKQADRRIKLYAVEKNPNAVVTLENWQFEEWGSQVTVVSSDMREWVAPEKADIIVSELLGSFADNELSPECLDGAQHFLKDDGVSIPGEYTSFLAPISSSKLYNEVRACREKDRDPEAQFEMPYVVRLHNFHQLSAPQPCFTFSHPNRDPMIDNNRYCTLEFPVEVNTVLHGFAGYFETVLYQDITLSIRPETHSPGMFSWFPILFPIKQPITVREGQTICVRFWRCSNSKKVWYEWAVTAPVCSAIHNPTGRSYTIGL
PRMT5-MTA, sequence (Q9BQA1 whole entry partner): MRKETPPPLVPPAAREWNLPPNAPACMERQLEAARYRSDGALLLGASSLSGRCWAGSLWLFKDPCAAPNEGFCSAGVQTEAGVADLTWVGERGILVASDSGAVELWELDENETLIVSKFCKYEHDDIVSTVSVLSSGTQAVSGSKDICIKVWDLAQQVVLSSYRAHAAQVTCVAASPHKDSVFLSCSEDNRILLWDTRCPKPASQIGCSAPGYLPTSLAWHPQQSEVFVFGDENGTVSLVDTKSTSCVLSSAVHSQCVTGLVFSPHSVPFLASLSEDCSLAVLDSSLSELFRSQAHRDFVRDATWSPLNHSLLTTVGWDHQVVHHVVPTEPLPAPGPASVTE

Description for PRMT5-MTA: The enzymatic inhibition activity of the compounds against PRMT5-MTA was detected using the AlphaScreen method. A 1× methyltransferase assay buffer IV (Signalchem) was prepared as a dilution solution for each component of the enzymatic reaction. […] The test compounds were added to all wells except the control wells in a 3-fold dilution series of 10 concentration points starting from 1000 nM using a Tecan D300e. After centrifugation at 1000 rpm for 1 minute in a centrifuge, the plate was incubated at 23°C for 15 minutes. Histone H4 substrate at a final concentration of 5 nM was added to the plate at 4 µL per well. After centrifugation at 1000 rpm for 1 minute in a centrifuge, the plate was reacted in an incubator at 23°C for 45 minutes. Anti-Histone H4 (symmetric dimethyl R3) antibody (Abcam) was pre-incubated with 50 µg/mL AlphaScreen Protein A Acceptor beads (PerkinElmer) at room temperature for 10 minutes, and then added to the plate in a volume of 10 µL per well, followed by reaction at room temperature for 1 hour. 10 µL of 50 µg/mL AlphaScreen Streptavidin Donor beads (PerkinElmer) were added to each well, and reacted at room temperature for 1 hour. The signal values in the plate were detected using the Alpha method on an Envision multi-mode plate reader. The IC50 values of the compounds for PRMT5/MET50 enzyme activity inhibition were calculated in Xlfit 5.0 software.

`CNC(N)=Nc1ccc(C(=O)N(Cc2ccc(F)c(C)c2)[C@H](C)c2ccccc2F)cn1` [Compound 101]: the figures for the concentration for half-maximal inhibition (IC50) in the assay with HCT116 MTAP KO, in the assay with HCT116-WT and on PRMT5-MTA were 352 nM, 1790 nM and 3.1 nM, respectively. The corresponding values for `CNC(N)=Nc1ccc(C(=O)N(Cc2ccc(-c3ccc(C)nc3)cn2)[C@H](C)c2ccccc2F)cn1` [Compound 71] are 62 nM, 1090 nM and 7.7 nM.

Consider `CNC(N)=Nc1ccc(C(=O)N(Cc2cccc(F)c2)[C@H](C)c2ccccc2F)cn1` [Compound 110], for which the 50% inhibitory concentration (IC50) turned out to be 508 nM with HCT116 MTAP KO, 3660 nM in the assay on HCT116-WT and 6.2 nM against PRMT5-MTA. `CNC(N)=Nc1ccc(C(=O)N(CC2CCCCO2)C(C)c2ccccc2F)cn1` (stereo not shown) [Compound 103] displayed an IC50 against PRMT5-MTA of 4.2 nM. With `CNC(N)=Nc1ccc(C(=O)N(Cc2ccc(C(F)(F)F)cn2)c2cccc3nccnc23)cn1` [Compound 50], the IC50 in the assay on HCT116 MTAP KO worked out at 25 nM; in the assay with HCT116-WT, 512 nM; against PRMT5-MTA, 1.7 nM. The corresponding values for `CN/C(N)=N\c1ccc(C(=O)N(Cc2ccc(C(F)(F)F)cn2)C(C)c2ccc(F)cc2)cn1` (stereo not shown) [Compound 118, (Z)-6-((amino(methylamino)methylene)amino)-N-(1-(4-fluorophenyl)ethyl)-N-((5-(trifluoromethyl)pyridin-2-yl)methyl)nicotinamide] are 454 nM, 2700 nM and 1.5 nM. The corresponding values for `CN/C(N)=N\c1ccc(C(=O)N(Cc2ccc(C(F)(F)F)cn2)[C@@H]2CCCc3ccccc32)cn1` [Compound 96, (R,Z)-6-((amino(methylamino)methylene)amino)-N-(1,2,3,4-tetrahydronaphthalen-1-yl) -N-((5-(trifluoromethyl)pyridin-2-yl)methyl)nicotinamide] are 22 nM, 366 nM and 3.5 nM.

`CN/C(N)=N\c1ccc(C(=O)N(Cc2ccc(C(F)(F)F)cn2)C(C)c2cccc3nccnc23)cn1` (stereo not shown) [Compound 120, (Z)-6-((amino(methylamino)methylene)amino)-N-(1-(quinoxalin-5-yl)ethyl)-N-((5-(trifluoromethyl)pyridin-2-yl)methyl)nicotinamide]: 1 nM corresponded to half-maximal inhibition against PRMT5-MTA (IC50).

Take `CC(c1ncccn1)N(Cc1ccc(C(F)(F)F)cn1)C(=O)c1ccc(N=C(N)NCC(=O)O)nc1` (stereo not shown) [Compound 18]: the IC50 was found to be 868 nM in the assay on HCT116 MTAP KO and 2030 nM in the assay with HCT116-WT. On PRMT5-MTA, `CNC(N)=Nc1ccc(C(=O)N(C)C2COc3cc(C(F)(F)F)ccc32)cn1` (stereo not shown) [Compound 54, 6-((amino(methylamino)methylene)amino)-N-methyl-N-(6-(trifluoromethyl)-2,3-dihydrobenzofuran-3-yl)nicotinamide] came in with an IC50 of 2 nM.

`CCC(c1ccccc1F)N(Cc1ccc(C(F)(F)F)cn1)C(=O)c1ccc(N=C(N)NC)nc1` (stereo not shown) [Compound 84]: the IC50 came to 25 nM in the assay on HCT116 MTAP KO and 428 nM with HCT116-WT.

On PRMT5-MTA, `CNC(N)=Nc1ccc(C(=O)N(Cc2ccc(C(F)(F)F)cn2)C(C)c2ccncc2)cn1` (stereo not shown) [Compound 39] showed an IC50 of 1.2 nM. Consider `CC(C)NC(N)=Nc1ccc(C(=O)N(Cc2ccc(C(F)(F)F)cn2)C(C)c2ncccn2)cn1` (stereo not shown) [Compound 15], for which, at PRMT5-MTA, the IC50 is 2.3 nM. Regarding `CNC(N)=Nc1ccc(C(=O)N(Cc2ccc(C(F)(F)F)cn2)C2CCCc3cccnc32)cn1` (stereo not shown) [Compound 59], the figures for the 50% inhibitory concentration (IC50) in the assay on HCT116 MTAP KO and in the assay with HCT116-WT were 18 nM and 413 nM, respectively.

On to `CN/C(N)=N\c1ccc(C(=O)N(Cc2ccc(C(F)(F)F)cn2)C2CCCc3nccnc32)cn1` (stereo not shown) [Compound 122, (Z)-6-((amino(methylamino)methylene)amino)-N-(5,6,7,8-tetrahydroquinoxalin-5-yl)-N -((5-(trifluoromethyl)pyridin-2-yl)methyl)nicotinamide], for which the values for the IC50 in the assay with HCT116 MTAP KO and in the assay with HCT116-WT were 192 nM and 1930 nM, respectively. `COCCNC(N)=Nc1ccc(C(=O)N(Cc2ccc(C(F)(F)F)cn2)C(C)c2ncccn2)cn1` (stereo not shown) [Compound 3] returned an IC50 at PRMT5-MTA of 2.9 nM. In the case of `CNC(N)=Nc1ccc(C(=O)N(Cc2ccc(C(F)(F)F)cn2)C(C)c2ncccn2)cc1` (stereo not shown) [Compound 4], the 50% inhibitory concentration (IC50) against PRMT5-MTA came out at 1.6 nM. The same measure, in the same setting: next, `CNC(N)=Nc1ccc(C(=O)N(Cc2cccnc2)[C@H](C)c2ccccc2F)cn1` [Compound 100]: 7.6 nM; `CNC(=Nc1ccc(C(=O)N(Cc2ccc(C(F)(F)F)cn2)C(C)c2ncccn2)cn1)NC` (stereo not shown) [Compound 21, 6-((bis(methyl-amino)methylene)amino)-N-(1-(pyrimidin-2-yl)ethyl)-N-((5-(trifluoromethyl)pyridin-2-yl)methyl)nicotinamide]: 4.7 nM; `CNC(N)=Nc1ccc(C(=O)N(Cc2ccc(C(F)(F)F)cn2)C2CCC2)cn1` [Compound 35]: 2 nM. On the same count and under the same terms, with `CNC(N)=Nc1ccc(C(=O)N(Cc2ccc(C(F)(F)F)cn2)C(C)c2ccc(C)cc2)cn1` (stereo not shown) [Compound 40] the figure was 1.9 nM; with `CNC(N)=Nc1ccc(C(=O)N(Cc2ccc3sc(NC)nc3c2)[C@H](C)c2ccccc2F)cn1` [Compound 80], 7.8 nM.

The compound `CC(c1ncccn1)N(Cc1ccc(C(F)(F)F)cn1)C(=O)c1ccc(N=C(N)NCCN(C)C)nc1` (stereo not shown) [Compound 10] came in with an IC50 against PRMT5-MTA of 1.3 nM. As to `CNC(N)=Nc1ccc(C(=O)N(Cc2ccc(-c3cncs3)cn2)[C@H](C)c2ccccc2F)cn1` [Compound 72], the IC50 in the assay on HCT116 MTAP KO worked out at 54 nM; in the assay with HCT116-WT, 696 nM. `COC=C(N)Nc1ccc(C(=O)N(Cc2ccc(C(F)(F)F)cn2)C(C)c2ncccn2)cn1` (stereo not shown) [Compound 23] came in with an IC50 against PRMT5-MTA of 5.8 nM. The same measure, in the same setting: next, `CNC(N)=Nc1ccc(C(=O)N(C)C2COc3cc(-c4ccncc4)ccc32)cn1` (stereo not shown) [Compound 55, 6-((amino(methylamino)methylene)amino)-N-methyl-N-(6-(pyridin-4-yl)-2,3-dihydrobenzofuran-3-yl)nicotinamide]: 5 nM. As to `CNC(N)=Nc1ccc(C(=O)N(Cc2ccc(C(F)(F)F)cn2)C(C)c2ccc(F)cc2)cn1` (stereo not shown) [Compound 37], the IC50 in the assay on HCT116 MTAP KO stood at 454 nM; in the assay with HCT116-WT it was 2700 nM. On to `CN/C(N)=N\c1ccc(C(=O)N(Cc2ccc(C(F)(F)F)cn2)C(C)c2ncccc2F)cn1` (single isomer, unassigned) [Compound 66], for which half-maximal inhibition on PRMT5-MTA (IC50) required 7.5 nM.

`COC(=O)CNC(N)=Nc1ccc(C(=O)N(Cc2ccc(C(F)(F)F)cn2)C(C)c2ncccn2)cn1` (stereo not shown) [Compound 8]: the half-inhibitory concentration (IC50) against PRMT5-MTA is 5.5 nM. Turning to `CNC(N)=Nc1ccc(C(=O)N2C[C@@H](C)CC[C@@H]2c2ccc(F)cc2)cn1` [Compound 57, 2-(5-((2R,5S)-2-(4-fluorophenyl)-5-methylpiperidine-1-carbonyl)pyridin-2-yl)-1-methyl guanidine], the midpoint of inhibition at PRMT5-MTA, the IC50, lay at 1.8 nM. `CC(c1ncccn1)N(Cc1ccc(C(F)(F)F)cn1)C(=O)c1ccc(N=C(N)Nc2ccccc2)nc1` (stereo not shown) [Compound 9] registered an IC50 at PRMT5-MTA of 7.9 nM. On the same count and under the same terms, with `CNC(N)=Nc1ccc(C(=O)N(Cc2ccc(C(F)(F)F)cn2)C(C)c2cccc3ccccc23)cn1` (stereo not shown) [Compound 43] the figure was 1.6 nM. Same read-out and setting: next, `CNC(N)=Nc1ccc(C(=O)N(Cc2ccc(C(F)(F)F)cc2F)C(C)c2cccc3nccnc23)cn1` (stereo not shown) [compound 121]: 4.4 nM; `CC(c1ncccn1)N(Cc1ccc(C(F)(F)F)cn1)C(=O)c1ccc(N=C(N)NCCO)nc1` (stereo not shown) [Compound 19]: 0.8 nM.

These data come from patent EP4763847A1 (Jiangsu Yahong Meditech Co., Ltd., priority 2023, dated 2025).
